The target of one assay is Cytochrome P450 3A4 (Homo sapiens, UniProt P08684). Description: Inhibition of CYP3A4 (unknown origin).
The target in a further assay is Cytochrome P450 2D6 (Homo sapiens, UniProt P10635). Description: Inhibition of CYP2D6 (unknown origin).
Another assay addresses T1, Cytochrome P450 1A2 (Homo sapiens, UniProt P05177).
T1 sequence (P05177 whole entry): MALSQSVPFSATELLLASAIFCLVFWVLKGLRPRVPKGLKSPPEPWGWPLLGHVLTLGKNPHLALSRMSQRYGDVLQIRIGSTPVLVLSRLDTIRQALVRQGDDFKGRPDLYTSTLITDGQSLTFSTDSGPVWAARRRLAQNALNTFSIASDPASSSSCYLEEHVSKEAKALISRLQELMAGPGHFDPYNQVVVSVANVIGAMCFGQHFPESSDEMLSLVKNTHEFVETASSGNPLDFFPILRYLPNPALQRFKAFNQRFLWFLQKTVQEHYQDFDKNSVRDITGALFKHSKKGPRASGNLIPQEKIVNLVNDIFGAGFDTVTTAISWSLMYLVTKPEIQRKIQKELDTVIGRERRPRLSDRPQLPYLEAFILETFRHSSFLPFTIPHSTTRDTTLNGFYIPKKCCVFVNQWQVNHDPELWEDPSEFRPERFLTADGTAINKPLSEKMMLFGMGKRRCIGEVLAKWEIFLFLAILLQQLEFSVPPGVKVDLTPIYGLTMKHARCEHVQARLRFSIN
Nature of the assay: Inhibition of CYP1A2 (unknown origin).

Another assay addresses Cytochrome P450 2C9 (Homo sapiens, UniProt P11712). Description: Inhibition of CYP2C9 (unknown origin).
For another assay, the target named is Cytochrome P450 2C19 (Homo sapiens, UniProt P33261). Description: Inhibition of CYP2C19 (unknown origin).
Sequence of Cytochrome P450 2C19 (P33261 whole entry): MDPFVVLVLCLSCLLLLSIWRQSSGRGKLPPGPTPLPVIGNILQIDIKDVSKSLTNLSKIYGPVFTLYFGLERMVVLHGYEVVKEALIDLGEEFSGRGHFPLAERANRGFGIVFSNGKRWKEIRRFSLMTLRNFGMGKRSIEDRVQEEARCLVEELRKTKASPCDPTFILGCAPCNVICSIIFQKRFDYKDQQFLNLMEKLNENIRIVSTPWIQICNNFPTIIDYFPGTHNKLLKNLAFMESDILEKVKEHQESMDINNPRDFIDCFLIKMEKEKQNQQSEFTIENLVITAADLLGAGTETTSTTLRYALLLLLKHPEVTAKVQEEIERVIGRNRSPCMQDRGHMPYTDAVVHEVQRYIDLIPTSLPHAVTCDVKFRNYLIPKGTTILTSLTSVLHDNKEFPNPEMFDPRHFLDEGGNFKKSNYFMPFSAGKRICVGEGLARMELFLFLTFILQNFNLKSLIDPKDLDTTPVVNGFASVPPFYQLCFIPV
Assay [1] concerns the target Potassium voltage-gated channel subfamily H member 2 (Homo sapiens, UniProt Q12809). Description: Inhibition of hERG.

Sequence of Cytochrome P450 2C9 (P11712 whole entry): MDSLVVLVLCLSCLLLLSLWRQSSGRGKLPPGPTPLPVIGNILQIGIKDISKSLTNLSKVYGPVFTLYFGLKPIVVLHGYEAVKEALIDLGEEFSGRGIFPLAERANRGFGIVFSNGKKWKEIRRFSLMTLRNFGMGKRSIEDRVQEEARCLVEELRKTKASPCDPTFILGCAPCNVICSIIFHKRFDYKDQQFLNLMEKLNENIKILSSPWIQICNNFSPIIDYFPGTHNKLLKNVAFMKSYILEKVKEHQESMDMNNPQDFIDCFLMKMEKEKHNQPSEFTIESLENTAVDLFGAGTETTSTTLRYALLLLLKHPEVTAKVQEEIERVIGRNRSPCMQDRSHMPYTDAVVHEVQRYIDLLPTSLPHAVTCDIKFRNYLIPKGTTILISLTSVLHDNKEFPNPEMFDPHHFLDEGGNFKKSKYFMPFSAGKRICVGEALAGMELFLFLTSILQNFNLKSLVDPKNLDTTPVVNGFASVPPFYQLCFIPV
Sequence of Cytochrome P450 3A4 (P08684 whole entry): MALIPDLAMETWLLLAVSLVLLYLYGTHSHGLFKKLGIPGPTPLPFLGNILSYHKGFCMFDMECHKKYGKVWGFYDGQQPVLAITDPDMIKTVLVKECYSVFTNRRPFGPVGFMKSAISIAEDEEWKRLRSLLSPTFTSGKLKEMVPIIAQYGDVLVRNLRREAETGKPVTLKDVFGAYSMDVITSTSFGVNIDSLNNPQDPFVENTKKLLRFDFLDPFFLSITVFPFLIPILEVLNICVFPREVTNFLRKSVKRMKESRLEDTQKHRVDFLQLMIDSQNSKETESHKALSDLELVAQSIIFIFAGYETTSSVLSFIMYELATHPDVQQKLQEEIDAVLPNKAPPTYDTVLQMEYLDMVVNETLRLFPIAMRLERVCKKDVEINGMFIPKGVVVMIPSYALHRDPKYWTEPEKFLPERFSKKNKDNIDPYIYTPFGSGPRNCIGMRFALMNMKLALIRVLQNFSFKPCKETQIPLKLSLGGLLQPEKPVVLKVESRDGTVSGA
Sequence of Cytochrome P450 2D6 (P10635 whole entry): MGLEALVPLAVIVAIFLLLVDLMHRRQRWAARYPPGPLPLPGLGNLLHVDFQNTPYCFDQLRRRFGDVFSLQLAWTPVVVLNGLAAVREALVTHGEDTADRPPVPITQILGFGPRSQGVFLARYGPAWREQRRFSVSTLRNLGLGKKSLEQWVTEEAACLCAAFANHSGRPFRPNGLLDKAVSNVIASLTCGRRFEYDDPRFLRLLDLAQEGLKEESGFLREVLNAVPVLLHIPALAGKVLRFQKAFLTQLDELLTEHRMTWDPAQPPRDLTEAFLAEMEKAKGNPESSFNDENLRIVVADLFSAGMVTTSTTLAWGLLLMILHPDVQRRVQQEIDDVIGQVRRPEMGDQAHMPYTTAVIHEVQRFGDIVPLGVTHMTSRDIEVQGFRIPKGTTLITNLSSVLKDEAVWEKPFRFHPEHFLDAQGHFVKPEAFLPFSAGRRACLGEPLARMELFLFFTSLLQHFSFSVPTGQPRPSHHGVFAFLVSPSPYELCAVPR
Sequence of Potassium voltage-gated channel subfamily H member 2 (Q12809 whole entry): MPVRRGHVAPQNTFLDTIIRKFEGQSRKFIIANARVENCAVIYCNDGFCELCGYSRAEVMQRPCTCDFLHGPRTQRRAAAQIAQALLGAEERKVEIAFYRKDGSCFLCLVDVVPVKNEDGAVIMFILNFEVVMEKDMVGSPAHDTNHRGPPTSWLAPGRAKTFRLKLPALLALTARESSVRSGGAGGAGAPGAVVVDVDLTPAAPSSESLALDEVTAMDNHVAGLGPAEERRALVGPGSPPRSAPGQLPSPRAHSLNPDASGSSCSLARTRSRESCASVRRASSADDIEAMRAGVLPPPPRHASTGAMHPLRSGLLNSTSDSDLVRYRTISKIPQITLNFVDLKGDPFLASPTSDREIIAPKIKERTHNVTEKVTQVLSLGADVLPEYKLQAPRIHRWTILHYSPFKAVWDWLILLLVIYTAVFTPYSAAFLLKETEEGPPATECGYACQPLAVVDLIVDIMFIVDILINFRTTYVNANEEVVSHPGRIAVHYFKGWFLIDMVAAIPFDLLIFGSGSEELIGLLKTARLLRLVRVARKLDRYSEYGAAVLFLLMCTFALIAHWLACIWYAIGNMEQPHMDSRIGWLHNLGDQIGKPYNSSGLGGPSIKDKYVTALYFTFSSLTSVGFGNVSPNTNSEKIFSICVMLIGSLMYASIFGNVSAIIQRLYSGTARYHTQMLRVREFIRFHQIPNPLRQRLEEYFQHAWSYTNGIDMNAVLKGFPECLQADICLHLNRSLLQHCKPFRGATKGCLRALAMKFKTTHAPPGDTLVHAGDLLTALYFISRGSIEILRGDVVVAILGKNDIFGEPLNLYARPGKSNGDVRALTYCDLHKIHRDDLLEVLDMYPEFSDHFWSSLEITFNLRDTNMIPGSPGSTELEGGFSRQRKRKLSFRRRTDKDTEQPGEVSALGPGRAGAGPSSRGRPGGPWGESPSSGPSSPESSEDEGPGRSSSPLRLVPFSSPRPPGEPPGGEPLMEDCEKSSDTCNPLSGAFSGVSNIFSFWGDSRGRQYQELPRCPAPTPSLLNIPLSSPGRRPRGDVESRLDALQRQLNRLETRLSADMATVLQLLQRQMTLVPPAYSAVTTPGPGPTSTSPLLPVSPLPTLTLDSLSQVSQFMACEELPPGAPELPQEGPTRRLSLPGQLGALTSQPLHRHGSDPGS

As to `O=C(Nc1ccc(-c2ccc(F)cn2)cc1)c1cc2sc(NCCN3CCOCC3)nc2s1`, the IC50 is 6.95 µM at Cytochrome P450 3A4; 6.85 µM against Cytochrome P450 2D6; more than 100 µM against Cytochrome P450 1A2; 7.41 µM on Cytochrome P450 2C9; more than 100 µM at Cytochrome P450 2C19; 27.6 µM in assay [1].
Turning to `Cc1nc2cc(NC(=O)c3cc4sc(N5CCC(C(=O)N(C)C)CC5)nc4s3)ccc2o1`, the IC50 is more than 50 µM against Cytochrome P450 3A4; more than 50 µM at Cytochrome P450 2D6; more than 50 µM against Cytochrome P450 1A2; more than 50 µM at Cytochrome P450 2C9; more than 50 µM at Cytochrome P450 2C19; more than 30 µM in assay [1].

The values above are taken from BindingDB's records for doi:10.1021/jf000548p (Institut Pasteur Korea, 2020).
